Legend:
Type in all cases: cell-based, Escherichia coli
[1] = system: E. coli ATCC 25922 (SEN) and E. coli NCTC13846 (MDR); experiment: Frequency-of-resistance (FoR) assay, relative MIC of mutants
Method: The susceptibility of antibiotics to resistance development was evaluated in two strains of each bacterial species: a multidrug-resistant strain and an antibiotic-sensitive strain of Escherichia coli, Klebsiella pneumoniae, Acinetobacter baumannii, and Pseudomonas aeruginosa. To explore first-step resistance, we previously used a standard protocol for spontaneous frequency-of-resistance analysis (FoR assay) at multiple concentrations of each antibiotic[10],[28],[31]–[33]. […] For all other combinations, approximately 10^10 bacterial cells were exposed to one of each antibiotic on agar plates for two days at concentrations where the given strain is susceptible. We examined resistance levels by contrasting the minimum inhibitory concentration (MICs) of the mutated strains to the original wild-type bacterial strain (i.e., relative MIC).
To estimate the frequency of spontaneous mutations that confer resistance in a microbial population, we conducted a frequency of resistance (FoR) assay following established protocols[10],[31]–[33]. […] Prior to plating, bacteria were grown overnight in MHB medium at 37 °C and 250 RPM, then centrifuged and washed in MHB. All experiments were performed in triplicate, and plates were incubated at 37 °C for 48 hours. Total colony-forming units (CFUs) were determined by plating appropriate dilutions onto antibiotic-free MHB agar. Resistance frequencies were calculated by dividing the number of resistant colonies by the initial viable cell count. From the plates with the highest antibiotic concentration, ten colonies were selected for MIC determination and whole-genome sequencing.
A robotic liquid handling system was used to automatically prepare a 11 to 16-step serial dilution in 384-well microtiter plates (Greiner). A final concentration of 5 × 10^5 bacterial cells per mL were inoculated into each well containing 60 µL MHB medium. Bacterial cultures were incubated at 37 °C with continuous shaking (Infors shaker, 900 rpm with 3 mm throw) for 18 hours (2 replicates from each). Cell growth was monitored by measuring the optical density (OD600 values, using Biotek Synergy microplate reader). MIC was defined as the antibiotic concentration of complete growth inhibition (i.e., OD600 < 0.05). Relative MIC was calculated as follows:1 relativeMIC=MICevolved/MICancestor […]
Supplementary Figure 3. Resistance levels following the frequency of resistance assay across bacterial strains. The level of resistance was measured as the fold change in relative MIC between evolved and ancestral strains. Data are grouped by bacterial strain (A. baumannii (AB), E. coli (EC), K. pneumoniae (KP), and P. aeruginosa (PA)) and categorized as either multidrug-resistant (MDR) or sensitive (SEN). Each data point represents a laboratory evolved line, and boxplots show the median, first and third quartiles, with whiskers indicating the 5th and 95th percentiles. […]
analysis was performed using two-sided Dunn’s post-hoc test with Benjamini-Hochberg correction for multiple comparisons (**/ * indicates p < 0.01/ 0.05). For detailed information on antibiotic and bacterial species, see Supplementary Table 1. For mode of action groups, refer to Table 1. Source data are provided as a Source Data file.

[2] = system: E. coli BW25113-ΔacrB; experiment: AcrAB-TolC efflux deficiency screen, relative MIC; details: ΔacrB vs wild-type
Method: (§1) Fig. 6 The impact of AcrAB-TolC activity on antibiotic susceptibility. E. coli strains with AcrAB-TolC depletion (BW25113-ΔacrB) and overexpression (BW25113: pUCacrAB) were treated with various antibiotics, and the level of resistance was determined as minimum inhibitory concentration (MIC) relative to a wild-type strain, presented on a logarithmic scale (log2). Each bar represents the mean resistance level (susceptibility, i.e., level of resistance < 0; and resistance, i.e., level of resistance > 0) to antibiotics induced by acrAB overexpression (blue bars; E. coli with a multicopy plasmid of the acrAB genes (pUCacrAB)) and acrB deletion (red bars; mutant E. coli with acrB gene deletion (ΔacrB)) compared to the wild-type. Data are presented as mean values of 3 biological replicates ± SD. […] Detailed information on antibiotic and bacterial strain abbreviations is provided in Supplementary Data 1. Source data are provided as a Source Data file. For information on mode of action groups, refer to Table 1.
(§2) For the efflux deficiency screen, the ΔacrB mutant of E. coli K12 BW25113[86] and its equivalent wild-type control strain with intact gene were utilized. In contrast, BW25113 carrying a multicopy acrAB plasmid (pUCacrAB)[87] and its control strain harboring an empty pUC118 plasmid were used to overexpress the acrAB efflux system. According to established protocols via P1 transduction, the suitable acrB deletion mutant (ΔacrB BW25113) was created, while the pUCacrAB plasmid was kindly provided by Kunihiko Nishino and Akihito Yamaguchi (Osaka University, Osaka, Japan). In a prior study, both strains were employed. Since the copy number of the plasmid carrying the efflux pump is controlled by native promoters, external induction is unnecessary.
(§3) Antibiotic susceptibilities of these strains were evaluated using a modified version of the standard broth dilution method. In 96-well microtiter plates containing fresh MHB medium, or supplemented MS medium in case of SCH79797, ten-step serial dilutions of an antibiotic from a stock solution were made (2 wells per antibiotic concentration per strain). The two wells contained only supplemented media without any antibiotics […]. Strains were incubated overnight at 37 °C with continuous agitation. Additionally, plasmid containing strains were grown in the presence of 100 µg/mL ampicillin. The culture was diluted to yield a cell suspension with 5 ×10^5 cells/mL and then inoculated into the wells of the microtiter plate. To determine the medium’s background OD value, the first column of the 96-well plate contained solely MHB without inoculum. Prior to the measurement, the plates were incubated at 37 °C with continuous shaking at 900 rpm with 3 mm throw. OD600 values were determined in a microplate reader after 18 hours of incubation (Biotek Synergy 2). The minimum inhibitory concentration (MIC) was determined as the lowest concentration of antibiotic at which the OD600 values were less than 0.05 after subtracting the background value. The log2 of the relative MIC was computed using the following equation:2 log2relativeMICpUCacrAB=MICpUCacrAB/MICpUC118 3 log2relativeMICΔacrB=MICΔacrB/MICwt

[3] = system: E. coli BW25113: pUCacrAB; experiment: AcrAB-TolC efflux overexpression screen, relative MIC; details: pUCacrAB vs empty pUC118 control
Method: as §1, §2, §3

[4] = Escherichia coli ATCC 25922 (EC-SEN), evolved line 1 versus ancestor
[5] = Escherichia coli ATCC 25922 (EC-SEN), evolved line 2 versus ancestor
[6] = Escherichia coli ATCC 25922 (EC-SEN), evolved line 3 versus ancestor

SMILES | MIC of evolved line ([1]; E. coli NCTC 13846 (EC-MDR), evolved line 1) | Relative MIC ([1]; E. coli NCTC 13846 (EC-MDR), evolved line 1, evolved vs ancestor) | MIC of evolved line ([1]; E. coli NCTC 13846 (EC-MDR), evolved line 2) | Relative MIC ([1]; E. coli NCTC 13846 (EC-MDR), evolved line 2, evolved vs ancestor) | MIC of evolved line ([1]; E. coli NCTC 13846 (EC-MDR), evolved line 3) | Relative MIC ([1]; E. coli NCTC 13846 (EC-MDR), evolved line 3, evolved vs ancestor) | MIC of evolved line ([1]; Escherichia coli ATCC 25922 (EC-SEN), evolved line 1) | MIC of evolved line ([1]; Escherichia coli ATCC 25922 (EC-SEN), evolved line 2) | MIC of evolved line ([1]; Escherichia coli ATCC 25922 (EC-SEN), evolved line 3) | Relative MIC [1, 4] | Relative MIC [1, 5] | Relative MIC [1, 6] | Relative MIC (log2) ([2]; replicate 1) | Relative MIC (log2) ([2]; replicate 2) | Relative MIC (log2) ([2]; replicate 3) | Relative MIC (log2) ([3]; replicate 1) | Relative MIC (log2) ([3]; replicate 2) | Relative MIC (log2) ([3]; replicate 3) | MIC ([1]; Escherichia coli, read-out: MIC of evolved line, Escherichia coli ATCC 25922 (EC-SEN), evolved line 2)
C[C@@H](O)[C@H]1C(=O)N2C(C(=O)O)=C(S[C@H]3CC[S@@+]([O-])C3)S[C@H]12 [Sulopenem] | 0.0625 µg/mL | 2 | 0.0312 µg/mL | 1 | 0.0312 µg/mL | 1 | 0.0156 µg/mL | 0.0156 µg/mL | 0.0156 µg/mL | 1 | 1 | 1 | 0.585 | 0.585 | 0.585 | 0 | 0 | 0 | 
C[C@@H]1CN2c3c(cc4c(N5C(=O)OC[C@@H]5C)noc4c3F)CC3(C(=O)NC(=O)NC3=O)[C@H]2[C@H](C)O1 [Zoliflodacin] |  |  |  |  |  |  |  |  |  | 8 | 8 | 8 | -4 | -4 | -4 | 2 | 2 | 2 | 16 µg/mL

From article PMC11845477, “Exploring the principles behind antibiotics with limited resistance” (Nature Communications, 2025)
